Measurements as given in paper PMC7711741 (Journal of medicinal chemistry, 2015).

Tests used:
[1] = biological target: murine uPA (Mus musculus, UniProt P06869); test: Ki determination, chromogenic substrate S-2444; assay type: biochemical; conditions: for fold increase in Ki for muPA: versus peptide 2
[2] = tested on: huPA-H99Y; test: Ki determination, chromogenic substrate S-2444; assay type: biochemical, human; conditions: versus peptide 2
[3] = biological target: human PK (Homo sapiens, UniProt P03952); test: Ki determination, chromogenic substrate S-2302; assay type: biochemical; conditions: versus mupain-1–16
Chain of human PK (P03952 20-638): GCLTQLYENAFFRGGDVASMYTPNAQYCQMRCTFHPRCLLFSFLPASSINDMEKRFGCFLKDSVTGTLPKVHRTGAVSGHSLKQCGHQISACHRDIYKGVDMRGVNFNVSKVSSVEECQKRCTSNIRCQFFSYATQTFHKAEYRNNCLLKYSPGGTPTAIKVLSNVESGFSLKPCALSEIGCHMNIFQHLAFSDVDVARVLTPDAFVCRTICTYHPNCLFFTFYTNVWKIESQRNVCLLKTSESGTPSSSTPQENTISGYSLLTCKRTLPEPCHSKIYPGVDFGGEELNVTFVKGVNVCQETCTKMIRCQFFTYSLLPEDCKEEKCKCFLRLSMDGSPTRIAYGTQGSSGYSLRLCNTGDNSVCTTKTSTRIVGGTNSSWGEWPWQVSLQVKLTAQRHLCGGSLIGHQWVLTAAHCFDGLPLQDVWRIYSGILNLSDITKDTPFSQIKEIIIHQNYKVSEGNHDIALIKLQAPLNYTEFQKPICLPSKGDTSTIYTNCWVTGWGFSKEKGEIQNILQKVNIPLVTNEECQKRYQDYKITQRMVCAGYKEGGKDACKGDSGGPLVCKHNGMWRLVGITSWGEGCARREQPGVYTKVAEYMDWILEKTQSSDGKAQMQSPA

Chain of murine uPA (P06869 21-433): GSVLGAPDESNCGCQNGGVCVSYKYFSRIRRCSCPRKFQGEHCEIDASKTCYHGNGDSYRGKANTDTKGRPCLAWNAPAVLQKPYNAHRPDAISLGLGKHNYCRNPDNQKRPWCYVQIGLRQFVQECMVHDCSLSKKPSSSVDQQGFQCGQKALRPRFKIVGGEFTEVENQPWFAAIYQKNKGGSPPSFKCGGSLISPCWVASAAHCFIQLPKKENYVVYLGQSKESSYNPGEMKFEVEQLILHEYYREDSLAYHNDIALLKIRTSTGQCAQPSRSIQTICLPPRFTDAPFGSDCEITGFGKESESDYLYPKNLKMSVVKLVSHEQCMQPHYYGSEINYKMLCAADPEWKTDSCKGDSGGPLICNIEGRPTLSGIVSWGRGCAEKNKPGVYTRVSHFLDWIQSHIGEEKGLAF

fold increase in Ki for muPA [1] [fold]	fold increase in Ki for huPA-H99Y [2] [fold]	fold weakened affinity to muPA ([1]; versus peptide 1)	Substance	fold lower Ki for inhibition of hPK [3] [fold]
100	100		CPAKS[L-3-(N-amidino-4-piperidyl)alanine]AL[KAc]C [peptide 4]	
100	100		CPARS[L-3-(N-amidino-4-piperidyl)alanine]AL[KAc]C [peptide 3]	
			CPAYS[L-3-(N-amidino-4-piperidyl)alanine]-ALDC [peptide 1]	10
		about 10 fold	CPAYS[L-3-(N-amidino-4-piperidyl)alanine]AL[KAc]C [peptide 2]	
